“Also recorded” adds a separate entry of the source.
Experiments:
C57BL/6 mice [1] = assay: Acute SR 48692 treatment: proximal intestinal TG content after olive oil gavage; type: in vivo; conditions: 2.5 mg/kg ip 30 min before olive oil gavage
From the text: (§1) FIGS. 13A-D show graphs and images illustrating that NT promotes intestinal cell lipid absorption or accumulation, while NT deficiency reduces intestinal lipid absorption A. Proximal intestines from mice given saline, olive oil, or olive oil+SR 48692 were collected and TG levels quantified as described above (n=8). Graph presents the fold change vs. control mice. * p<0.05 vs. control mice; † p<0.05 vs. mice with olive oil only. B. Male NT^+/+ and NT^−/− mice (n=4) on normal chow were fasted overnight. Mice were injected with either saline or SR 48692 (2.5 mg/kg, i.p). Thirty min after the injection, mice were given olive oil (10 μl/g) by oral gavage and then sacrificed. The proximal small bowel was excised and TG content measured. *p<0.05 vs. saline in NT^+/+ and NT^−/− mice; † p<0.05 vs. olive oil only in NT^+/+ mice; ‡ p<0.05 vs. olive oil only in NT^+/+ mice. C. Weekly body weight was measured in male wild type C57BL/6 mice fed HFD and treated with SR 48692 (2.5 mg/kg diluted in diH2O and administered by oral gavage twice a day) or vehicle (vehicle n=12; SR 48692 n=13). BW slopes were compared: * p<0.05 vehicle vs. SR treatment. D. Weekly food intake was measured in male wild type C57BL/6 mice (n=12-13) fed HFD and chronically treated with either SR 48692 or vehicle. […] All data are mean+/−SD. […]

NT^+/+ and NT^−/− mice = assay: Acute SR 48692 treatment repeated in NT+/+ and NT-/- mice: proximal intestinal TG; type: in vivo; conditions: 2.5 mg/kg ip 30 min before olive oil
From the text: as §1

C57BL/6 mice [2] = assay: Chronic SR 48692 treatment of HFD-fed mice: body weight and food intake; type: in vivo; conditions: wild type mice fed HFD
From the text: FIGS. 13A-D show graphs and images illustrating that NT promotes intestinal cell lipid absorption or accumulation, while NT deficiency reduces intestinal lipid absorption A. Proximal intestines from mice given saline, olive oil, or olive oil+SR 48692 were collected and TG levels quantified as described above (n=8). Graph presents the fold change vs. control mice. * p<0.05 vs. control mice; † p<0.05 vs. mice with olive oil only. B. Male NT^+/+ and NT^−/− mice (n=4) on normal chow were fasted overnight. Mice were injected with either saline or SR 48692 (2.5 mg/kg, i.p). Thirty min after the injection, mice were given olive oil (10 μl/g) by oral gavage and then sacrificed. The proximal small bowel was excised and TG content measured. *p<0.05 vs. saline in NT^+/+ and NT^−/− mice; † p<0.05 vs. olive oil only in NT^+/+ mice; ‡ p<0.05 vs. olive oil only in NT^+/+ mice. C. Weekly body weight was measured in male wild type C57BL/6 mice fed HFD and treated with SR 48692 (2.5 mg/kg diluted in diH2O and administered by oral gavage twice a day) or vehicle (vehicle n=12; SR 48692 n=13). […] D. Weekly food intake was measured in male wild type C57BL/6 mice (n=12-13) fed HFD and chronically treated with either SR 48692 or vehicle. […]
All procedures were approved by the Institutional Animal Care and Use Committee of the University of Kentucky. […] Body weight and food intake were measured weekly. […]

AMPK [3] = assay: Western blot of p-AMPK in proximal intestinal mucosa after olive oil gavage; type: in vivo; conditions: mice after olive oil gavage, with or without SR 48692 pretreatment
Protocol: FIGS. 2A-M includes images and graphs illustrating NT deficiency reduces intestinal lipid absorption. A. (left panel) Fecal triglyceride (TG) was analyzed in male mice fed a high-fat diet (HFD) for 24 wks (n=3); * p=0.05 vs NT^+/+ mice; (right panel) Fecal weight was measured in male NT^+/+ and NT^−/− mice (n=7-9) fed either normal chow (NC) or HFD for 24 wks; there was no significant difference between genotypes. B. Oil red O (ORO) staining of proximal intestines from male mice (6-mo-old) under normal chow fed with or without olive oil by gavage after overnight fasting (n=3). C. Levels of ^13C18-oleic acid (OA) in male mice (5-mo-old) under normal chow fed with ^13C18-OA mixed in olive oil by gavage after an overnight fast was analyzed by nanospray FT-MS (n=3-4). Left panel, * p<0.05 vs. NT^+/+ mice. […] D. ORO staining of proximal intestines from male mice (5-mo-old) following gavage with or without olive oil plus NT after an overnight fast (left panel); TG was quantified (right panel) (n=5). * p<0.05 vs. Saline in NT^+/+ and NT^−/− mice, respectively; † p<0.05 vs. olive oil in NT^−/− mice; ‡ p<0.05 vs. olive oil in NT^+/+ mice. […] Densitometric quantification of p-AMPK was normalized to total AMPK and is presented as fold change vs. p-AMPK in NT^+/+ (right panel, n=9). * p<0.05 vs. NT^+/+. F. Protein extracts from mucosal scrapings of samples were analyzed by western blotting (left panel). […]

[4] = tested on: mTORC1 and ERK1/2 signaling; assay: Western blot of p-S6K1 and p-ERK1/2 in BON cells; type: cell-based, human; conditions: pretreatment with CC 10 μM, AICAR 1 mM 3 h
Protocol: FIGS. 16A-D show graphs and images illustrating Cross-talk of AMPK and mTORC1 signaling. A. Diagram of cross-talk of AMPK and mTORC1 signaling. B. Western blot analysis of BON cells treated with or without AICAR (left panel) or 1 mM AICAR and CC (10 μM) (right panel) for 3 h. C. NT EIA (upper panel) and western blotting (lower panel) on BON cells expressing control vector and myc-raptor S722A/S792A treated with AICAR (1 mM) for 3 h. D. NT EIA (upper panel) and western blotting (lower panel) on BON cells expressing control vector and NTC and TSC2 siRNA treated with AICAR (1 mM) for 3 h. *p<0.05 vs. control in vector, †p<0.05 vs. AICAR in vector (C); *p<0.05 vs. control in NTC siRNA, †p<0.05 vs. control in NTC siRNA, ‡ p<0.05 vs. AICAR in NTC siRNA (D). n=6. All data are mean+/−SD.
AMPK activation inhibits mTORC1 through raptor, a component of mTORC1, or TSC2, a negative regulator of mTORC1 signaling. […] Moreover, a stable BON overexpression cell line was generated with a mutant raptor vector in which both Ser722 and Ser792 (AMPK phosphorylation sites) are replaced by alanine. […] Together, these findings further indicate the interaction of AMPK, mTORC1 and ERK signaling in the regulation of NT secretion.

AMPK [5] = assay: Western blot of p-AMPK in FHs 74 Int cells; type: cell-based, human; conditions: FHs 74 Int cells treated with oleate 1 h
Protocol: (§2) G. Human small intestinal cells (FHs74Int) (left panel) and RIE-1 cells (right panel) were treated with the indicated concentrations of oleate for 1 h and lysates were analyzed by western blotting. […] All data are mean+/−SD. Experiments in vitro were at least repeated three times.
(§3) Tissues and cells were lysed with lysis buffer (Cell Signaling Technology), and equal amounts of protein were resolved on 4-12% NuPAGE BisTris gels (Life Technologies) and electrophoretically transferred to polyvinylidene difluoride (PVDF) membranes; the membranes were incubated with primary antibodies overnight at 4° C. followed by secondary antibodies conjugated with horseradish peroxidase. Membranes were developed using chemiluminescence (ECL) Western Blotting System from GE Healthcare Life Science (Piscataway, N.J.) and Thermo Scientific (Waltham, Mass.).

AMPK [6] = assay: Western blot of p-AMPK in RIE-1 cells; type: cell-based, rat; conditions: RIE-1 cells treated with oleate 1 h
Protocol: as §2
All data are mean+/−SD. Experiments were repeated at least three times.
as §3

STC-1 cells = assay: NT release from STC-1 cells (NT EIA); type: cell-based, mouse; conditions: OA 0.25 mM, phorbol myristate acetate 100 nM
From the text: FIGS. 15A-B show graphs and images illustrating that FFAR1 and FFAR4 agonists increase AMPK activity. A. NT IF (left panel), NT EIA (middle panel, *p<0.05 vs. control) and western blotting (right panel) of STC-1 cells. B. Real-time PCR. GAPDH was used as the internal control (BON cell expression was arbitrarily set at 1). All data are mean+/−SD.
FFAR1 (previously known as GPR40) and FFAR4 (previously known as GPR120) are medium- to long-chain FFA G-protein-coupled receptors that have been implicated in the regulation of energy homeostasis and hormone secretion.

Compound: COc1cccc(OC)c1-c1cc(C(=O)NC2(C(=O)O)C3CC4CC(C3)CC2C4)nn1-c1ccnc2cc(Cl)ccc12 (stereo not shown) [SR 48692]
- intestinal FA absorption following olive oil gavage (proximal intestine TG) (C57BL/6 mice [1]): decreased intestinal FA absorption
- lipid absorption after olive oil administration (NT^+/+ and NT^−/− mice; NT-/- mice): did not further decrease lipid absorption
- intestinal FA absorption (as measured by TG accumulation) (NT^+/+ and NT^−/− mice; wild type (NT+/+) mice): inhibited intestinal FA absorption
- body weight gain (C57BL/6 mice [2]; 2.5 mg/kg oral gavage twice a day for 13 weeks): significantly attenuated body weight gain
- food intake (cumulative and weekly) (C57BL/6 mice [2]; 2.5 mg/kg oral gavage twice a day, 2.5 mg/kg): without altering food intake; also recorded: did not show a significant difference
- p-AMPK expression in proximal intestine (AMPK [3]): restored the p-AMPK expression to control levels

Compound: c1cc(-c2cnn3cc(-c4ccc(OCCN5CCCCC5)cc4)cnc23)ccn1 [compound C]
- effect of AICAR on p-S6K1 and p-ERK1/2 [4]: attenuated this effect

Compound: CCCCCCCC/C=C\CCCCCCCC(=O)[O-].[Na+] [oleate, Oleate sodium]
- p-AMPK (AMPK [5]): led to an increase in p-AMPK
- p-AMPK (AMPK [6]): led to an increase in p-AMPK

Compound: CCCCCCCCCCCCCC(=O)O[C@@H]1[C@@H](C)[C@@]2(O)[C@@H](C=C(CO)C[C@]3(O)C(=O)C(C)=C[C@@H]23)[C@@H]2C(C)(C)[C@]12OC(C)=O [phorbol myristate acetate]
- NT release (STC-1 cells): stimulated NT release
